SMILES strings stand for the structures.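 Five concentrations, 48 hours, 96-well plates. At the GI50, growth is halved.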 Calls of active or inactive are those of the source. No stated cut-off is given here; in the data, active = GI50 up to about 1.1 µM and inactive = higher. A value given as a limit tells only on which side of the number the result lay.

Some test systems named below: M14; OVCAR-3; NCI-H460; UACC-62; K562; NCI-H522; BT-549; HCT-116; LOX IMVI; MDA-MB-435; MCF7; MDA-N; SK-OV-3; DU-145; 786-0; SN12C; HOP-62; MOLT-4; T47D; SW-620.
What all share (test): NCI tumour cell line growth inhibition, 48 h

As for `S=C(Nc1ccc2c(c1)Cc1ccccc1-2)Nc1ccc2c(c1)Cc1ccccc1-2`, the GI50 with M14 is > 100 µM (inactive); with OVCAR-3 it was > 100 µM (inactive); with NCI-H460 it was > 100 µM (inactive); in the experiment with UACC-62, > 100 µM (inactive); with K562, 19.1 µM (inactive); with NCI-H522, > 100 µM (inactive). Further, the GI50 in the experiment with BT-549, in the experiment with HCT-116, in the experiment with LOX IMVI, in the experiment with MDA-MB-435, in the experiment on MCF7 and with MDA-N was > 100 µM (inactive) each time. In addition, the GI50 in the experiment on SK-OV-3 was > 100 µM (inactive); with DU-145 it was > 100 µM (inactive); in the experiment with 786-0, > 100 µM (inactive); in the experiment with SN12C, > 100 µM (inactive); in the experiment on HOP-62 it was > 100 µM (inactive); in the experiment with MOLT-4, 15 µM (inactive). The GI50 in the experiment with T47D and with SW-620 was > 100 µM (inactive) in each case.
`c1ccc(CCCNc2nnnc3ccccc23)cc1`: the GI50 is > 100 µM (inactive) in the experiment on M14; > 100 µM (inactive) in the experiment on OVCAR-3; > 100 µM (inactive) in the experiment with NCI-H460; 36 µM (inactive) in the experiment on UACC-62; 47.5 µM (inactive) in the experiment with K562; 24.1 µM (inactive) in the experiment on NCI-H522. In addition, the GI50 in the experiment on BT-549 was > 100 µM (inactive); with HCT-116 it was > 100 µM (inactive); with LOX IMVI, 99.5 µM (inactive); in the experiment with MDA-MB-435, 55.1 µM (inactive); with MCF7 it was 46 µM (inactive); in the experiment on MDA-N, 69 µM (inactive). The GI50 in the experiment on SK-OV-3 is > 100 µM (inactive); in the experiment with DU-145, > 100 µM (inactive); with 786-0, > 100 µM (inactive); in the experiment with SN12C, > 100 µM (inactive); with HOP-62 it was > 100 µM (inactive); in the experiment on MOLT-4, 35.6 µM (inactive). Moreover, the results for the GI50 with T47D and with SW-620 were 23.2 µM (inactive) and > 100 µM (inactive), respectively.
Regarding `COc1ccc(C(=O)NCCN(C)C)c2nc3ccccc3cc12`, the GI50 in the experiment with M14 is 1.33 µM (inactive); in the experiment with OVCAR-3, 2 µM (inactive); in the experiment on NCI-H460, 0.0255 µM (active); in the experiment on UACC-62, 0.729 µM (active); in the experiment on K562 it was 1.44 µM (inactive); in the experiment with NCI-H522, 0.817 µM (active). Further, the GI50 with BT-549 is 3.18 µM (inactive); in the experiment on HCT-116, 0.561 µM (active); with LOX IMVI, 0.279 µM (active); with MDA-MB-435, 1.85 µM (inactive); in the experiment with MCF7, 0.401 µM (active); in the experiment on MDA-N it was 1.46 µM (inactive). For the same molecule, the GI50 was 1.56 µM (inactive) in the experiment with SK-OV-3; 0.753 µM (active) in the experiment with DU-145; 0.305 µM (active) in the experiment on 786-0; 0.386 µM (active) in the experiment with SN12C; 0.353 µM (active) in the experiment with HOP-62; 0.0411 µM (active) in the experiment on MOLT-4. Further, the GI50 in the experiment on T47D is 2.22 µM (inactive); with SW-620 it was 0.383 µM (active).
With `CN(C)CCNCc1ccc2c(-c3ccccc3)nc3cc(Cl)c(Cl)cc3n12`, the GI50 is 8.13 µM (inactive) in the experiment with M14; 17.5 µM (inactive) in the experiment on OVCAR-3; 9.68 µM (inactive) in the experiment on NCI-H460; 8.85 µM (inactive) with UACC-62; 8.32 µM (inactive) in the experiment with K562; 13.6 µM (inactive) in the experiment on NCI-H522. In addition, the GI50 with BT-549 is 16.4 µM (inactive); in the experiment on HCT-116, 7.74 µM (inactive); in the experiment with LOX IMVI, 7.48 µM (inactive); in the experiment on MDA-MB-435 it was 8.69 µM (inactive); with MCF7, 6.19 µM (inactive); with MDA-N, 9.48 µM (inactive). For the same molecule, the GI50 with SK-OV-3 was 6.43 µM (inactive); in the experiment on DU-145, 9.64 µM (inactive); in the experiment on 786-0, 5.96 µM (inactive); in the experiment with SN12C, 9.93 µM (inactive); in the experiment on HOP-62, 7.33 µM (inactive); in the experiment on MOLT-4, 8.53 µM (inactive). Besides, the GI50 in the experiment on T47D was 4.94 µM (inactive); with SW-620 it was 8.83 µM (inactive).
On to `COc1ccc(C(O)c2ccccn2)cc1` (stereo not given), for which the GI50 in the experiment with M14, in the experiment on OVCAR-3, with NCI-H460, in the experiment with UACC-62, with K562 and in the experiment on NCI-H522 was > 100 µM (inactive) each time. Further, the GI50 in the experiment on BT-549, with HCT-116, with LOX IMVI, in the experiment with MDA-MB-435, with MCF7 and in the experiment on MDA-N was > 100 µM (inactive) in each case. Moreover, the GI50 in the experiment with SK-OV-3, in the experiment with DU-145, with 786-0, in the experiment with SN12C, in the experiment on HOP-62 and in the experiment with MOLT-4 was > 100 µM (inactive) in each case. In addition, the GI50 with T47D and in the experiment with SW-620 was > 100 µM (inactive) each time.
In the case of `COc1ccc2oc(S(=O)(=O)N3CC(CCl)c4ccc([N+](=O)[O-])cc43)cc2c1` (stereo not given), the GI50 in the experiment on M14 is 0.122 µM (active); in the experiment on OVCAR-3 it was 0.108 µM (active); in the experiment with NCI-H460, 0.102 µM (active); in the experiment with UACC-62, 0.055 µM (active); in the experiment with K562 it was 0.0366 µM (active); in the experiment with NCI-H522 it was 0.0292 µM (active). For the same molecule, the GI50 in the experiment on BT-549 is 0.351 µM (active); in the experiment on HCT-116 it was 0.0908 µM (active); with LOX IMVI, 0.155 µM (active); in the experiment on MDA-MB-435, 0.0177 µM (active); in the experiment with MCF7, 0.0401 µM (active); in the experiment on MDA-N it was 0.0301 µM (active). Further, the GI50 in the experiment on SK-OV-3 was 0.105 µM (active); in the experiment on DU-145, 0.0883 µM (active); with 786-0, 0.0959 µM (active); in the experiment with SN12C, 0.179 µM (active); in the experiment with HOP-62 it was 0.0381 µM (active); in the experiment on MOLT-4, 0.223 µM (active). The GI50 was 20.2 µM (inactive) in the experiment with T47D and 0.0841 µM (active) in the experiment with SW-620.
For the molecule `CC(=O)O[C@H]1C[C@H](O[C@H]2[C@@H](O)C[C@H](O[C@H]3[C@@H](O)C[C@H](O[C@H]4CC[C@@]5(C)[C@H](CC[C@@H]6[C@@H]5CC[C@]5(O)[C@@H](C7=CC(=O)OC7)CC[C@]65O)C4)O[C@@H]3C)O[C@@H]2C)O[C@H](C)[C@H]1O[C@@H]1O[C@H](CO)[C@@H](O)[C@H](O)[C@H]1O`, the GI50 in the experiment with M14 was 0.841 µM (active); in the experiment on OVCAR-3, 0.349 µM (active); in the experiment with NCI-H460 it was 0.106 µM (active); in the experiment on UACC-62, 0.769 µM (active); in the experiment on K562, 0.337 µM (active); in the experiment on NCI-H522, 0.0492 µM (active). Moreover, the GI50 in the experiment on BT-549 was 0.304 µM (active); in the experiment with HCT-116 it was 0.243 µM (active); with LOX IMVI, 0.271 µM (active); in the experiment with MDA-MB-435 it was 0.624 µM (active); in the experiment with MCF7, 0.52 µM (active); in the experiment with MDA-N, 0.45 µM (active). The GI50 is 0.555 µM (active) with SK-OV-3; 0.243 µM (active) in the experiment with DU-145; 0.258 µM (active) in the experiment on 786-0; 0.258 µM (active) in the experiment on SN12C; 0.0664 µM (active) in the experiment with HOP-62; 0.0262 µM (active) in the experiment with MOLT-4. The figures for the GI50 with T47D and in the experiment on SW-620 were 0.553 µM (active) and 0.407 µM (active), respectively.
On to `NNS(=O)(=O)c1cc(C(=O)O)cc(C(=O)O)c1`, for which the GI50 in the experiment on M14, in the experiment on OVCAR-3, with NCI-H460, in the experiment on UACC-62, in the experiment with K562 and in the experiment with NCI-H522 was > 100 µM (inactive) each time. In addition, the GI50 with BT-549, in the experiment on HCT-116, in the experiment with LOX IMVI, in the experiment on MDA-MB-435, in the experiment with MCF7 and in the experiment with MDA-N was > 100 µM (inactive) in each case. Further, the GI50 in the experiment on SK-OV-3, in the experiment on DU-145, with 786-0, in the experiment on SN12C, in the experiment with HOP-62 and in the experiment on MOLT-4 was > 100 µM (inactive) throughout. Further, the GI50 with T47D and with SW-620 was > 100 µM (inactive) in each case.
`O=C1C=CC(=O)N1c1ccc(I)cc1`: the GI50 was 16.7 µM (inactive) with M14; 20.8 µM (inactive) in the experiment on OVCAR-3; 33.5 µM (inactive) in the experiment on NCI-H460; 17.5 µM (inactive) with UACC-62; 6.01 µM (inactive) with K562; 18.6 µM (inactive) with NCI-H522. For the same molecule, the GI50 was 19 µM (inactive) with BT-549; 15.6 µM (inactive) in the experiment on HCT-116; 19.9 µM (inactive) in the experiment on LOX IMVI; 16.4 µM (inactive) in the experiment on MDA-MB-435; 17.4 µM (inactive) in the experiment on MCF7; 15.2 µM (inactive) in the experiment with MDA-N. Moreover, the GI50 in the experiment on SK-OV-3 was 16.5 µM (inactive); in the experiment on DU-145 it was 19.2 µM (inactive); in the experiment on 786-0, 7.53 µM (inactive); with SN12C, 20.6 µM (inactive); in the experiment with HOP-62, 15.7 µM (inactive); with MOLT-4, 2.56 µM (inactive). Further, the figures for the GI50 in the experiment with T47D and with SW-620 were 25.6 µM (inactive) and 7.08 µM (inactive), respectively.
For the molecule `CNc1cccnc1/C=N/N=C(/N)S`, the GI50 was 1.37 µM (inactive) in the experiment with M14; 2.17 µM (inactive) in the experiment on OVCAR-3; 2.46 µM (inactive) in the experiment on NCI-H460; 0.379 µM (active) in the experiment on UACC-62; > 4.76 µM (inactive) in the experiment on K562; 2.47 µM (inactive) in the experiment on NCI-H522. Besides, the GI50 in the experiment on BT-549 is 1.71 µM (inactive); in the experiment with HCT-116 it was 1.22 µM (inactive); in the experiment with LOX IMVI, 2.02 µM (inactive); in the experiment with MDA-MB-435, 2.41 µM (inactive); with MCF7, 0.471 µM (active); in the experiment with MDA-N, 4.69 µM (inactive). Also, the GI50 in the experiment on SK-OV-3 was 4.49 µM (inactive); with DU-145 it was 0.685 µM (active); in the experiment on 786-0 it was 0.38 µM (active); in the experiment on SN12C it was 1.33 µM (inactive); in the experiment with HOP-62, 3.11 µM (inactive); in the experiment with MOLT-4 it was 1.5 µM (inactive). Besides, the GI50 is 2.7 µM (inactive) with T47D and 3.05 µM (inactive) in the experiment with SW-620.

These data come from ChEMBL document CHEMBL1201862, “PubChem BioAssay data set” (2004).
